Columns and labels:
Type in all cases: biochemical
PAK4 = PAK4 (Homo sapiens, UniProt O96013); experiment: In vitro PAK inhibition assay (SelectScreen, Ser/Thr 20 peptide)
Method: (§1) Compounds are screened in 1% DMSO (final) in the well. For 10 point titrations, 3-fold serial dilutions are conducted.
(§2) All Peptide/Kinase Mixtures are diluted to a 2× working concentration in the appropriate Kinase Buffer
The 2×PAK4/Ser/Thr 20 mixture is prepared in 50 mM HEPES pH 7.5, 0.01% BRIJ-35, 10 mM MgCl2, 1 mM EGTA. The final 10 μL Kinase Reaction consists of 0.1-0.75 ng PAK4 and 2 μM Ser/Thr 20 in 50 mM HEPES pH 7.5, 0.01% BRIJ-35, 10 mM MgCl2, 1 mM EGTA. After the 1 hour Kinase Reaction incubation, 5 μL of a 1:256 dilution of Development Reagent A is added.
(§3) This control yields 100% cleaved peptide in the Development Reaction.
(§4) The 100% Phosphorylation Control, which consists of a synthetically phosphorylated peptide of the same sequence as the peptide substrate, is designed to allow for the calculation of percent phosphorylation.
The minimum Emission Ratio in a screen is established by the 0% Inhibition Control, which contains active kinase. This control is designed to produce a 10-50%* phosphorylated peptide in the Kinase Reaction.
(§5) A known inhibitor control standard curve, 10 point titration, is run for each individual kinase on the same plate as the kinase to ensure the kinase is inhibited within an expected IC50 range previously determined.
(§6) Bar-coded Corning, low volume NBS, black 384-well plate (Corning Cat. #3676) • 1. Add the following solutions to a well in a 384-well plate: • 2.5 μL of 4× Test Compound OR (100 nL 100× Test Compound plus 2.4 μL kinase buffer) • 5 μL of 2× Peptide/Kinase (PAK) Mixture • 2.5 μL of 4×ATP Solution • 2. Shake the plate for 30-seconds • 3. Incubate the PAK Kinase Reaction at room temperature for 60-minutes • 4. Add 5 μL of Development Reagent Solution to each well • 5. Shake the plate for 30-seconds • 6. Incubate the Development Reaction for 60-minutes • 7. Determine the fluorescence using a fluorescence plate reader • 8. Analyze the fluorescence data
SelectScreen® Kinase Profiling Service uses XLfit from IDBS. The dose response curve is curve fit to model number 205 (sigmoidal dose-response model).
The table below provides specifications and data around each kinase. The representative IC50 value with a known inhibitor for each kinase was determined at the ATP bin nearest to the ATP Km app.

PAK1 = PAK1 (Homo sapiens, UniProt Q13153); experiment: In vitro PAK inhibition assay (SelectScreen, Ser/Thr 19 peptide)
Sequence of PAK1 (Q13153 whole entry): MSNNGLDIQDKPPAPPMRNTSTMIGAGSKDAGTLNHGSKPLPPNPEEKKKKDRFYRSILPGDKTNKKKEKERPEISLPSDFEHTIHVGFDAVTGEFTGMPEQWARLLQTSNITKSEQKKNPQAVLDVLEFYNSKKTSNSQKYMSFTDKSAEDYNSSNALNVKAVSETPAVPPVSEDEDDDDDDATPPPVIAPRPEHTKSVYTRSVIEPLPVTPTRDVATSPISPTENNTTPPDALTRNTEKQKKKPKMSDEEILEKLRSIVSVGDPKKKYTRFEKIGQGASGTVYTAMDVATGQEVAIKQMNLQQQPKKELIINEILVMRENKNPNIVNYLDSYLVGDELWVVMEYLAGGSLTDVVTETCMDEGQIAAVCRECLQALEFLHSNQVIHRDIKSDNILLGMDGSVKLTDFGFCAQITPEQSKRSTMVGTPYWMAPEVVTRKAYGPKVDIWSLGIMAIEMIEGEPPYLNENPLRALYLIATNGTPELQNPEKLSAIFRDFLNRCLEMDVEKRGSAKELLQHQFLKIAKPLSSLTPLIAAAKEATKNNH
Method: as §1, §2
The 2×PAK1/Ser/Thr 19 mixture is prepared in 50 mM HEPES pH 7.5, 0.01% BRIJ-35, 10 mM MgCl2, 1 mM EGTA.
as §3, §4
(§7) This control is designed to produce a 10-50%* phosphorylated peptide in the Kinase Reaction.
as §5
as §6, with “Add” for “Bar-coded Corning, low volume NBS, black 384-well plate (Corning Cat. #3676) • 1. Add”
(§8) SelectScreen® Kinase Profiling Service uses XLfit from IDBS.
(§9) The representative IC50 value with a known inhibitor for each kinase was determined at the ATP bin nearest to the ATP Km app.

PAK3 = PAK3 (Homo sapiens, UniProt O75914); experiment: In vitro PAK inhibition assay (SelectScreen, Ser/Thr 20 peptide)
Sequence of PAK3 (O75914 whole entry): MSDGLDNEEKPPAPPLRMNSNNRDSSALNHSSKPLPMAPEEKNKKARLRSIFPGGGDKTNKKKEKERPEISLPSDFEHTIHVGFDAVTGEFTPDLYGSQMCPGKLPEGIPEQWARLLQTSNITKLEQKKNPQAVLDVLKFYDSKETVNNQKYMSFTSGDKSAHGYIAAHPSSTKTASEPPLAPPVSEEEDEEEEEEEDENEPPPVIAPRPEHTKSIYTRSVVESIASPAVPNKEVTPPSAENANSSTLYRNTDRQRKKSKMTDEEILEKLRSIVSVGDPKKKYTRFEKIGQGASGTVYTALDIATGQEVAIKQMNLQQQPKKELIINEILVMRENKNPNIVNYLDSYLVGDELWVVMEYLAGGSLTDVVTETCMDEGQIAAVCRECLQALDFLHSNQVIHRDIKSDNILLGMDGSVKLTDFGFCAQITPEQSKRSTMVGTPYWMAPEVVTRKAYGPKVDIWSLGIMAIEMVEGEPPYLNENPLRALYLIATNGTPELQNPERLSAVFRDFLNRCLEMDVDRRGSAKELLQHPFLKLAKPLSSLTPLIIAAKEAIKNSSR
Method: as §1, §2
The 2×PAK3/Ser/Thr 20 mixture is prepared in 50 mM HEPES pH 7.5, 0.01% BRIJ-35, 10 mM MgCl2, 1 mM EGTA.
as §3, §4, §7, §5
as §6, with “Add” for “Bar-coded Corning, low volume NBS, black 384-well plate (Corning Cat. #3676) • 1. Add”
as §8, §9

PAK2 (PAK65) = PAK2 (PAK65) (Homo sapiens, UniProt Q13177); experiment: as above
Sequence of PAK2 (PAK65) (Q13177 whole entry): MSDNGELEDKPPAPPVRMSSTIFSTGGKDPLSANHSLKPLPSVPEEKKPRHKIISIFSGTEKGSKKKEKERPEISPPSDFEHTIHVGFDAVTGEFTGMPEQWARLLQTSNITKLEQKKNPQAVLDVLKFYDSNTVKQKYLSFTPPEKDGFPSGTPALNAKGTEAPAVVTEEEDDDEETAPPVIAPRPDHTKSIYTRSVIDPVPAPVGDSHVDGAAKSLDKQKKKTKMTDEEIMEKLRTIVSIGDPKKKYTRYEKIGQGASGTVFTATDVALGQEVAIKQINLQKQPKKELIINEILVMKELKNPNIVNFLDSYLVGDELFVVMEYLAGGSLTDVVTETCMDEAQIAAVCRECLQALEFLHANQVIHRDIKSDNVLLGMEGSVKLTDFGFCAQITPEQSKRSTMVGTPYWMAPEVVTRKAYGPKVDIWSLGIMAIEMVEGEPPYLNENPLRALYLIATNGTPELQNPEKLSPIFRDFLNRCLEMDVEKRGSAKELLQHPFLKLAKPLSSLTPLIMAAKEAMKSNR
Method: as §1, §2
The 2×PAK2 (PAK65)/Ser/Thr 20 mixture is prepared in 50 mM HEPES pH 7.5, 0.01% BRIJ-35, 10 mM MgCl2, 1 mM EGTA. The final 10 μL Kinase Reaction consists of 0.29-6 ng PAK2 (PAK65) and 2 μM Ser/Thr 20 in 50 mM HEPES pH 7.5, 0.01% BRIJ-35, 10 mM MgCl2, 1 mM EGTA.
as §3, §4, §7, §5
as §6, with “Add” for “Bar-coded Corning, low volume NBS, black 384-well plate (Corning Cat. #3676) • 1. Add”
as §8, §9

Sequence of PAK4 (O96013 whole entry): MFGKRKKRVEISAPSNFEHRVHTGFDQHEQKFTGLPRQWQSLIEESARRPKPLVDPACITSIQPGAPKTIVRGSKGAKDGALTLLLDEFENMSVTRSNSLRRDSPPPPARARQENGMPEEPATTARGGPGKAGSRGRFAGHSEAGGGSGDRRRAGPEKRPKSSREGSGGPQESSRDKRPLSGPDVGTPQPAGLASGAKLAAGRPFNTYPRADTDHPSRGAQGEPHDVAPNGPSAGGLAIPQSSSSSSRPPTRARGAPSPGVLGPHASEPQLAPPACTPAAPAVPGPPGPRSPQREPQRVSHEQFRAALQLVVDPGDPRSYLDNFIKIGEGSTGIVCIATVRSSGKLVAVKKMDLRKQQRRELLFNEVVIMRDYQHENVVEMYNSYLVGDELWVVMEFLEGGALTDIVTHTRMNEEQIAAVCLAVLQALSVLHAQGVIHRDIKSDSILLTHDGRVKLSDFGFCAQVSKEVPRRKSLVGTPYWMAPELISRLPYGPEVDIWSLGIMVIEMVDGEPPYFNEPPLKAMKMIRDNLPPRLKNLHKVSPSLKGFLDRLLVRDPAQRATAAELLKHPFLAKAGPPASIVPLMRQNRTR

Row | IC50 (PAK4) | IC50 (PAK1) | IC50 (PAK3) | IC50 (PAK2 (PAK65)) | Structure (SMILES)
1 | ≥ 5000 nM | < 50 nM | 50 to 500 nM | < 50 nM | CCn1c(=O)c(-c2ccc(-c3cccs3)cc2Cl)cc2cnc(Nc3ccc(N4CCN(C)CC4)cc3)nc21
2 | ≥ 5000 nM | 50 to 500 nM | 50 to 500 nM | 50 to 500 nM | CCn1c(=O)c(-c2ccc(C3CC3)cc2Cl)cc2cnc(Nc3ccc(N4CCN(C)CC4)cc3)nc21
3 | ≥ 5000 nM | 500 to 5000 nM | 500 to 5000 nM | 500 to 5000 nM | CCn1c(=O)c(-c2ccc(C3CC3)cc2C2CC2)cc2cnc(Nc3ccc(N4CCN(C)CC4)cc3)nc21
4 | 500 to 5000 nM | < 50 nM | < 50 nM | < 50 nM | CCn1c(=O)c(-c2ccc(-c3nccs3)cc2Cl)cc2cnc(Nc3ccc(N4CCN(C)CC4)cc3)nc21
5 | ≥ 5000 nM | > 5000 nM | > 5000 nM | > 5000 nM | CCn1c(=O)c(-c2ccc(-c3ccncc3)s2)cc2cnc(Nc3ccc(N4CCN(C)CC4)cc3)nc21
6 | ≥ 5000 nM | > 5000 nM | > 5000 nM | > 5000 nM | CCn1c(=O)c(-c2ccc(-c3ccon3)s2)cc2cnc(Nc3ccc(N4CCN(C)CC4)cc3)nc21
7 | ≥ 5000 nM | 50 to 500 nM | 50 to 500 nM | 50 to 500 nM | CCn1c(=O)c(-c2ccc(-c3cn[nH]c3)cc2Cl)cc2cnc(Nc3ccc(N4CCN(C)CC4)cc3)nc21
8 | 500 to 5000 nM | < 50 nM | < 50 nM | < 50 nM | CCn1c(=O)c(-c2ccc(-c3cccnc3)cc2Cl)cc2cnc(Nc3ccc(N4CCNCC4)c(F)c3)nc21
9 | ≥ 5000 nM | < 50 nM | 50 to 500 nM | 50 to 500 nM | CCOC(=O)c1nc(-c2ccc(-c3cc4cnc(Nc5ccc(N6CCN(C)CC6)cc5)nc4n(CC)c3=O)c(Cl)c2)no1
10 | 500 to 5000 nM | < 50 nM | < 50 nM | < 50 nM | CCn1c(=O)c(-c2ccc(-c3cncnc3)cc2Cl)cc2cnc(Nc3ccc(N4CCNCC4)c(F)c3)nc21
11 | 500 to 5000 nM | < 50 nM | < 50 nM | < 50 nM | CCn1c(=O)c(-c2ccc(-c3cncnc3)cc2Cl)cc2cnc(Nc3ccc(N4CCNCC4)cc3)nc21
12 | ≥ 5000 nM | < 50 nM | 50 to 500 nM | < 50 nM | CCn1c(=O)c(-c2ccc(-c3noc(C(F)(F)F)n3)cc2Cl)cc2cnc(Nc3ccc(N4CCN(C)CC4)cc3)nc21
13 | 500 to 5000 nM | < 50 nM | < 50 nM | < 50 nM | CCN1CCN(c2ccc(Nc3ncc4cc(-c5ccc(-c6cncnc6)cc5Cl)c(=O)n(CC)c4n3)cc2F)CC1
14 | 500 to 5000 nM | < 50 nM | < 50 nM | < 50 nM | CCn1c(=O)c(-c2ccc(-c3cccnc3)cc2Cl)cc2cnc(Nc3ccc(N4CCNCC4)cc3)nc21
15 | 500 to 5000 nM | < 50 nM | < 50 nM | < 50 nM | CCn1c(=O)c(-c2ccc(-c3cccnc3)cc2Cl)cc2cnc(Nc3ccc(N4CCN(C)CC4)c(F)c3)nc21
16 | ≥ 5000 nM | < 50 nM | < 50 nM | < 50 nM | CCn1c(=O)c(-c2ccc(-c3cncnc3)cc2Cl)cc2cnc(Nc3ccc(N4CCN(C)CC4)c(F)c3)nc21
17 | ≥ 5000 nM | < 50 nM | < 50 nM | < 50 nM | CCn1c(=O)c(-c2ccc(-c3cncnc3)cc2Cl)cc2cnc(Nc3ccc(N4CCN(C(C)C)CC4)c(F)c3)nc21
18 | 500 to 5000 nM | < 50 nM | < 50 nM | < 50 nM | CCn1c(=O)c(-c2ccc(-c3cncnc3)cc2Cl)cc2cnc(Nc3ccc(N4CCN(C(C)C)CC4)cc3)nc21
19 | 500 to 5000 nM | < 50 nM | < 50 nM | < 50 nM | CCN1CCN(c2ccc(Nc3ncc4cc(-c5ccc(-c6cccnc6)cc5Cl)c(=O)n(CC)c4n3)cc2)CC1

Row | IC50 (PAK4) | IC50 (PAK1) | IC50 (PAK3) | IC50 (PAK2 (PAK65)) | Structure (SMILES)
20 | 500 to 5000 nM | < 50 nM | < 50 nM | < 50 nM | CCn1c(=O)c(-c2ccc(-c3cncs3)cc2Cl)cc2cnc(Nc3ccc(N4CCNCC4)cc3)nc21
21 | 500 to 5000 nM | < 50 nM | < 50 nM | < 50 nM | CCn1c(=O)c(-c2ccc(-c3noc(C)n3)cc2Cl)cc2cnc(Nc3ccc(N4CCN(C)CC4)cc3)nc21
22 | ≥ 5000 nM | < 50 nM | < 50 nM | < 50 nM | CCn1c(=O)c(-c2ccc(-c3cccnc3)cc2Cl)cc2cnc(Nc3ccc(N4CCN(C(C)C)CC4)c(F)c3)nc21
23 | 500 to 5000 nM | < 50 nM | < 50 nM | < 50 nM | CCN1CCN(c2ccc(Nc3ncc4cc(-c5ccc(-c6cncnc6)cc5Cl)c(=O)n(CC)c4n3)cc2)CC1
24 | 500 to 5000 nM | < 50 nM | < 50 nM | < 50 nM | CCn1c(=O)c(-c2ccc(-c3cncs3)cc2Cl)cc2cnc(Nc3ccc(N4CCNCC4)c(F)c3)nc21
25 | ≥ 5000 nM | < 50 nM | < 50 nM | < 50 nM | CCn1c(=O)c(-c2ccc(-c3cncs3)cc2Cl)cc2cnc(Nc3ccc(N4CCN(C)CC4)c(F)c3)nc21
26 | ≥ 5000 nM | < 50 nM | < 50 nM | < 50 nM | CCn1c(=O)c(-c2ccc(-c3cncs3)cc2Cl)cc2cnc(Nc3ccc(N4CCN(C(C)C)CC4)c(F)c3)nc21
27 | 50 to 500 nM | < 50 nM | < 50 nM | < 50 nM | CCn1c(=O)c(-c2ccc(-c3noc(C)n3)cc2Cl)cc2cnc(Nc3ccc(N4CCNCC4)cc3)nc21
28 | ≥ 5000 nM | < 50 nM | < 50 nM | < 50 nM | CCn1c(=O)c(-c2ccc(-c3scnc3C)cc2Cl)cc2cnc(Nc3ccc(N4CCN(C)CC4)cc3)nc21
29 | ≥ 5000 nM | < 50 nM | 50 to 500 nM | < 50 nM | CCN1CCN(c2ccc(Nc3ncc4cc(-c5ccc(-c6cncs6)cc5Cl)c(=O)n(CC)c4n3)cc2F)CC1
30 | ≥ 5000 nM | < 50 nM | 50 to 500 nM | < 50 nM | CCn1c(=O)c(-c2ccc(-c3scnc3C)cc2Cl)cc2cnc(Nc3ccc(N4CCN(C(C)C)CC4)cc3)nc21
31 | 500 to 5000 nM | < 50 nM | < 50 nM | < 50 nM | CCn1c(=O)c(-c2ccc(-c3ncccn3)cc2Cl)cc2cnc(Nc3ccc(N4CCN(C)CC4)cc3)nc21
32 | ≥ 5000 nM | < 50 nM | < 50 nM | < 50 nM | CCn1c(=O)c(-c2ccc(-c3cnc(C)s3)cc2Cl)cc2cnc(Nc3ccc(N4CCN(C)CC4)cc3)nc21
33 |  |  | < 50 nM |  | CCn1c(=O)c(-c2ccc(-c3noc(C)n3)cc2Cl)cc2cnc(Nc3ccc(C4CCNCC4)cc3)nc21
34 |  |  | 50 to 500 nM |  | CCn1c(=O)c(-c2ccc(-c3cnc(C)s3)cc2Cl)cc2cnc(Nc3ccc(C4CCNCC4)cc3)nc21
35 |  |  | 50 to 500 nM |  | CCn1c(=O)c(-c2ccc(-c3cccnc3C)cc2Cl)cc2cnc(Nc3ccc(C4CCNCC4)cc3)nc21
36 |  | 50 to 500 nM |  | 50 to 500 nM | CCn1c(=O)c(-c2ccc(-c3ccnc(C)c3)cc2Cl)cc2cnc(Nc3ccc(C4CCNCC4)c(F)c3)nc21
37 | 500 to 5000 nM |  |  |  | CCn1c(=O)c(-c2ccc(-c3cccnc3F)cc2Cl)cc2cnc(Nc3ccc(C4CCNCC4)cc3)nc21
